Measurements taken from ChEMBL document CHEMBL4138083, “Design, synthesis and primary biological evaluation of the novel 2-pyridone derivatives as potent non-nucleoside HBV inhibitors” (Eur J Med Chem, 2017).

Legend:
Hepatitis B virus [1] = experiment: Antiviral activity against Hepatitis B virus infected in human HepG2.2.15 cells assessed as inhibition of viral DNA replication at 20 uM after 8 days by real time fluorescent PCR method relative to control; assay type: functional; conditions: HepG2.2.15, 192 h
[2] = Cytotoxicity against human HepG2.2.15 cells assessed as reduction in cell viability after 8 days by CCK-8 assay; assay type: cell-based, HepG2 2.2.15
Hepatitis B virus [3] = experiment: Antiviral activity against Hepatitis B virus infected in human HepG2.2.15 cells assessed as inhibition of HBsAg secretion after 8 days by ELISA; assay type: functional, organism-based; conditions: HepG2.2.15, 192 h
Hepatitis B virus [4] = experiment: Antiviral activity against Hepatitis B virus infected in human HepG2.2.15 cells assessed as inhibition of HBeAg secretion after 8 days by ELISA; assay type: functional, organism-based; conditions: HepG2.2.15, 192 h
[5] = Selectivity index, ratio of CC50 for human HepG2.2.15 cells to IC50 for Hepatitis B virus infected in human HepG2.2.15 cells assessed as inhibition of HBsAg secretion; assay type: toxicity, cell-based; conditions: read-out: Ratio CC50/IC50
[6] = Selectivity index, ratio of CC50 for human HepG2.2.15 cells to IC50 for Hepatitis B virus infected in human HepG2.2.15 cells assessed as inhibition of HBeAg secretion; assay type: toxicity, cell-based; conditions: read-out: Ratio CC50/IC50
Hepatitis B virus [7] = experiment: Antiviral activity against Hepatitis B virus assessed as inhibition of HBsAg secretion; assay type: functional, organism-based
Hepatitis B virus [8] = experiment: Antiviral activity against Hepatitis B virus infected in human HepG2.2.15 cells assessed as inhibition of viral DNA replication at 4 uM after 8 days by real time fluorescent PCR method relative to control; assay type: functional; conditions: HepG2.2.15, 192 h
Hepatitis B virus [9] = experiment: Antiviral activity against Hepatitis B virus infected in human HepG2.2.15 cells assessed as inhibition of viral DNA replication at 0.8 uM after 8 days by real time fluorescent PCR method relative to control; assay type: functional; conditions: HepG2.2.15, 192 h
Hepatitis B virus [10] = experiment: Antiviral activity against Hepatitis B virus infected in human HepG2.2.15 cells assessed as inhibition of viral DNA replication at 0.16 uM after 8 days by real time fluorescent PCR method relative to control; assay type: functional; conditions: HepG2.2.15, 192 h
Hepatitis B virus [11] = experiment: Antiviral activity against Hepatitis B virus infected in human HepG2.2.15 cells assessed as inhibition of viral DNA replication after 8 days by real time fluorescent PCR method; assay type: functional, organism-based; conditions: HepG2.2.15, 192 h

Row | SMILES | inhibition at 20 µM (Hepatitis B virus [1]) | CC50 at 192 h [2] | IC50 (Hepatitis B virus [3]) | IC50 (Hepatitis B virus [4]) | selectivity ratio [5] | selectivity ratio [6] | IC50 (Hepatitis B virus [7]) | inhibition at 4 µM (Hepatitis B virus [8]) | inhibition at 0.8 µM (Hepatitis B virus [9]) | inhibition at 0.16 µM (Hepatitis B virus [10]) | IC50 (Hepatitis B virus [11])
1 | CCOc1ccc(-c2cc(NC(=O)c3ccccc3O)c[nH]c2=O)cc1 | 37.8% | 41 µM | 15.2 µM | 24.6 µM | 2.69 | 1.66 | – | – | – | – | –
2 | CCOc1ccc(-c2cc(NC(=O)c3ccc(Cl)cc3O)c[nH]c2=O)cc1 | 21.9% | 28.6 µM | 23.2 µM | 22.8 µM | 1.23 | 1.25 | – | – | – | – | –
3 | COc1cccc(C(=O)Nc2c[nH]c(=O)c(-c3cccc(C)c3)c2)c1O | – | > 100 µM | 94.7 µM | > 100 µM | > 1.06 | – | – | – | – | – | –
4 | Cc1cccc(-c2cc(NC(=O)c3ccc(C(F)(F)F)cc3O)c[nH]c2=O)c1 | 23.2% | 24.2 µM | 26.4 µM | 26.8 µM | 0.92 | 0.9 | – | – | – | – | –
5 | COc1ccc(-c2cc(NC(=O)c3ccc(Cl)cc3O)c[nH]c2=O)cc1 | 22.9% | 50.5 µM | 79.4 µM | 76.9 µM | 0.64 | 0.66 | – | – | – | – | –
6 | COc1ccc(C(=O)Nc2c[nH]c(=O)c(-c3cccc(C)c3)c2)c(O)c1 | 60.9% | > 100 µM | > 100 µM | 44.6 µM | – | > 2.24 | – | – | – | – | –
7 | Cc1cccc(-c2cc(NC(=O)c3ccc(Cl)cc3O)c[nH]c2=O)c1 | 26.5% | 33.1 µM | 39 µM | 22.4 µM | 0.85 | 1.48 | – | – | – | – | –
8 | CCOc1ccc(-c2cc(NC(=O)c3cccc(OC)c3O)c[nH]c2=O)cc1 | 24.9% | 34.5 µM | 30.5 µM | 41.3 µM | 1.13 | 0.83 | – | – | – | – | –
9 | COc1c(O)cc2occ(-c3ccc(O)cc3)c(=O)c2c1O [TECTORIGENIN] | – | – | – | – | – | – | 53.9 µM | – | – | – | –
10 | COc1ccc(-c2cc(NC(=O)c3ccc(C)cc3O)c[nH]c2=O)cc1 | 58.1% | 46.1 µM | 89.9 µM | 23.6 µM | 0.51 | 1.96 | – | – | – | – | –
11 | Cc1cccc(-c2cc(NC(=O)c3ccc(F)cc3O)c[nH]c2=O)c1 | 37.6% | 37.2 µM | 65.8 µM | 32.3 µM | 0.57 | 1.15 | – | – | – | – | –
12 | COc1ccc(C(=O)Nc2c[nH]c(=O)c(-c3ccc4c(c3)OCO4)c2)c(O)c1 | 51.9% | 25.2 µM | 26.4 µM | 24.2 µM | 0.95 | 1.04 | – | – | – | – | –
13 | COc1ccc(C(=O)Nc2c[nH]c(=O)c(-c3ccc(OC)c(F)c3)c2)c(O)c1 | – | 50.5 µM | 52.2 µM | 31.6 µM | 0.97 | 1.6 | – | – | – | – | –
14 | Nc1ccn([C@@H]2CS[C@H](CO)O2)c(=O)n1 [LAMIVUDINE] | 81.9% | > 100 µM | > 100 µM | > 100 µM | – | – | – | 80.8% | 56.2% | 37% | 0.5 µM
15 | CCOc1ccc(-c2cc(NC(=O)c3ccc(OC)cc3O)c[nH]c2=O)cc1 | 4.2% | 69.6 µM | 44.1 µM | 41.4 µM | 1.58 | 1.68 | – | – | – | – | –
16 | Cc1cccc(-c2cc(NC(=O)c3ccc(C)cc3O)c[nH]c2=O)c1 | – | 75 µM | > 100 µM | 39.2 µM | < 0.75 | 1.91 | – | – | – | – | –
17 | CCOc1ccc(-n2cc(C(=O)c3ccc(OC)cc3O)ccc2=O)cc1 | 53.3% | > 100 µM | > 100 µM | 51.5 µM | – | > 1.94 | – | – | – | – | –
18 | COc1ccc(O)c(C(=O)Nc2c[nH]c(=O)c(-c3cccc(C)c3)c2)c1 | 40.3% | 30.1 µM | 20.8 µM | 16.9 µM | 1.44 | 1.78 | – | – | – | – | –
19 | COc1ccc(C(=O)Nc2c[nH]c(=O)c(-c3cc(C)ccc3C)c2)c(O)c1 | < 0% | 50.4 µM | 51.5 µM | 25.8 µM | 0.98 | 1.95 | – | – | – | – | –
20 | Cc1cc(C)cc(-c2cc(NC(=O)c3ccccc3O)c[nH]c2=O)c1 | 21.5% | 25.1 µM | 25.3 µM | 25.3 µM | 0.99 | 0.99 | – | – | – | – | –
21 | COc1ccc(C(=O)Nc2c[nH]c(=O)c(-c3ccc(C)c(C)c3)c2)c(O)c1 | < 0% | 31.3 µM | 32.4 µM | 33.2 µM | 0.97 | 0.94 | – | – | – | – | –
22 | CCOc1ccc(-c2cc(NC(=O)c3ccc(F)cc3O)c[nH]c2=O)cc1 | – | 51.5 µM | 28.4 µM | 60.6 µM | 1.81 | 0.85 | – | – | – | – | –
23 | COc1ccc(-c2cc(NC(=O)c3ccc(OC)cc3O)c[nH]c2=O)cc1 | 59.3% | 49.9 µM | 26 µM | 17.5 µM | 1.92 | 2.86 | – | – | – | – | –
24 | CCOc1ccc(-c2cc(NC(=O)c3ccc(C(F)(F)F)cc3O)c[nH]c2=O)cc1 | 76.8% | 22.2 µM | 23.7 µM | 24.1 µM | 0.94 | 0.92 | – | 47.3% | 39.5% | 4.7% | 3.4 µM
25 | Cc1cccc(-c2cc(NC(=O)c3ccccc3O)c[nH]c2=O)c1 | 25.5% | 98.8 µM | > 100 µM | 58.4 µM | < 0.99 | 1.69 | – | – | – | – | –
26 | CCOc1ccc(-c2cc(NC(=O)c3cc(OC)ccc3O)c[nH]c2=O)cc1 | 46% | 57.7 µM | 49.1 µM | 51.2 µM | 1.17 | 1.13 | – | – | – | – | –
27 | COc1ccc(-c2cc(NC(=O)c3cccc(OC)c3O)c[nH]c2=O)cc1 | 25.3% | 49.2 µM | 34.5 µM | 32.8 µM | 1.43 | 1.5 | – | – | – | – | –
28 | CCOc1ccc(-c2cc(NC(=O)c3ccc(C)cc3O)c[nH]c2=O)cc1 | 36.4% | > 100 µM | 62 µM | 91.9 µM | > 1.61 | > 1.09 | – | – | – | – | –
29 | COc1ccc(-c2cc(NC(=O)c3ccccc3O)c[nH]c2=O)cc1 | 37.9% | > 100 µM | > 100 µM | 46.4 µM | – | > 2.16 | – | – | – | – | –
